Experimental data taken from US10100372B2, “Recombinant RSV reporter virus” (priority 2014, dated 2018).
Read-outs that look alike come from different tables or passages of the source.

Key:
[1] = in vitro; settings: human
[2] = system: recRSV A2-L19F-renilla; test: microbe, parasite or virus in culture; type: cell-based; settings: BEAS-2B, 95% confidence interval in parentheses, inactive = less than 50% reduction of mean reporter signal; for EC50: read-out: EC50 RSV A2-L19F-renilla
[3] = system: recRSV A2-L19FD489E-fireSMASh
[4] = system: recIAV WSN-NanoLuc; settings: for SI [CC50/EC50] IAV: SIIAV
[5] = system: BEAS-2B cells; settings: highest concentration 10 μM, tox = less than 50% cell viability after 44 hours at ≤10 μM
[6] = molecular target: RSV F protein (Human respiratory syncytial virus, UniProt P12568); settings: resistance sites in the RSV F protein; cited from earlier work
[7] = system: RSV A2 strain; settings: cited from earlier work
[8] = system: recRSV A2-L19FD489E-fireSMASh; test: microbe, parasite or virus in culture; type: cell-based, Respiratory Syncytial Virus; settings: human respiratory syncytial virus, 384-well, four replicate screens, mean ± SD, BEAS-2B co-infection, read-out: % Inhibition (anti-RSV)
[9] = system: recIAV WSN-NanoLuc; test: microbe, parasite or virus in culture; type: cell-based, influenza virus IAV/WSN/33 (H1N1); settings: unidentified influenza virus, WSN, BEAS-2B, read-out: % Inhibition (anti-IAV)
[10] = system: recIAV WSN-NanoLuc; test: microbe, parasite or virus in culture; settings: Influenza A virus, BEAS-2B, read-out: EC50 IAV WSN-nanoLuc
[11] = system: recRSV A2-L19FD489E-fireSMASh; test: microbe, parasite or virus in culture; settings: human respiratory syncytial virus, BEAS-2B, read-out: EC50 RSV A2-L19FD489E-fireSMASh
[12] = BEAS-2B, 95% confidence interval in parentheses, inactive = less than 50% reduction of mean reporter signal
[13] = active concentrations based on in vitro assays, when available RSV A2 strain
[14] = human respiratory syncytial virus

RSV F protein, sequence (P12568 137-574 limits assumed): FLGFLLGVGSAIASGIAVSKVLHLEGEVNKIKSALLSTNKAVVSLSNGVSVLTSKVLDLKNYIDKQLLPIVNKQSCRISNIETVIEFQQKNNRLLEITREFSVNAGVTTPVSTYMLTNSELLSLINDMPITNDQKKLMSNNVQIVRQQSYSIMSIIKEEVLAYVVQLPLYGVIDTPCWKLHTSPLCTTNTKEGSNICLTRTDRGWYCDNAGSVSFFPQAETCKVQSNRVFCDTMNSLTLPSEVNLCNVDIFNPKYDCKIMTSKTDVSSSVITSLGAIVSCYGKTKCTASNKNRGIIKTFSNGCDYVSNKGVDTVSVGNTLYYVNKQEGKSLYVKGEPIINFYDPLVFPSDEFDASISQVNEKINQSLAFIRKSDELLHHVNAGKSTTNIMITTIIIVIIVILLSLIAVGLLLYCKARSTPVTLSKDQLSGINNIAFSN
RSV F protein, sequence (P12568 26-109 partner limits assumed): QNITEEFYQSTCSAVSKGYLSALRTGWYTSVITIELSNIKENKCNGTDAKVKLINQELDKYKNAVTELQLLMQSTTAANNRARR

In the case of `CCOC(=O)C1=C(C)NC(C)=C(C(=O)OC)C1c1cccc([N+](=O)[O-])c1` (stereo not drawn) [Nitrendipine], the CC50 [1] is reported as over 10000 nM, the “EC50 RSV A2-L19F-renilla” value [2] is reported as “inactive^e” and the “EC50 RSV A2-L19FD489E-fireSMASh” value [3, 12] is reported as “inactive^e”. The “EC50 IAV WSN-nanoLuc” value [4, 12] was “inactive^e”.
With `Cn1c(=O)c(-c2c(Cl)cccc2Cl)cc2cnc(Nc3ccc(N4CCOCC4)cc3)nc21` [PD173952] the “CC50 (PrestoBlue cell viability)” value [5] was “tox^d”.
For `CCN(CC)CCOc1ccc(Nc2ncc3cc(-c4c(Cl)cccc4Cl)c(=O)n(C)c3n2)cc1` [PD-166285], the “CC50 (PrestoBlue cell viability)” value [5] was “tox^d”.
`c1cnc2c(c1)ccc1cccnc12` [Phenanthroline] showed a CC50 [1] of 2400 nM.
In the case of `Cc1ccc(O)c(Cn2c(NC3CCN(CCN)CC3)nc3c(C)cccc32)n1` [R170591], the reported resistance sites [6] is given as “FF488I FF488L FD489Y” and the EC50 [7, 13] is given as 2 nM.
Work on `Cc1nc2ccc(CN(C)c3ccc(C(=O)N[C@@H](CCC(=O)O)C(=O)O)s3)cc2c(=O)[nH]1` [Raltitrexed] yielded an inhibition at 5 µM [8] of 91 ± 1% and an inhibition at 5 µM [9] of 60 ± 6.5%.
For `NC(=O)c1ncn([C@@H]2O[C@H](CO)[C@@H](O)[C@H]2O)n1` [Ribavirin], the CC50 [1] was over 10000 nM, the EC50 [10] was 4500 nM and the EC50 [2, 14] was 2900 nM. The “SI [CC50/EC50] RSV” value ([3]; SIRSV) was “SIRSV >3.9”, the “SI [CC50/EC50] IAV” value [4] was “SIIAV >2.2” and the EC50 [11] was 2600 nM.
`CN(CCOc1ccc(CC2SC(=O)NC2=O)cc1)c1ccccn1` (stereo not drawn) [Rosiglitazone] showed an inhibition at 5 µM [8] of 85 ± 5.8% and an inhibition at 5 µM [9] of 35 ± 5%.
In the case of `C[n+]1cc2c3c(ccc2c2ccc4cc5c(cc4c21)OCO5)OCO3` [Sanguinarine], the “CC50 (PrestoBlue cell viability)” value [5] is reported as “tox^d”.
With `CCN(CC)CCNC(=O)c1c(C)[nH]c(/C=C2\C(=O)Nc3ccc(F)cc32)c1C` [Sunitinib] the “CC50 (PrestoBlue cell viability)” value [5] was “tox^d”.
For `Cc1ccc(CCCO)c(NCc2ccc3nc(NCCCN4CCOCC4)n(Cc4nc(C)ccc4O)c3c2)c1` [TMC353121], the reported resistance sites [6] is given as “FK394R FS398L FD486N” and the EC50 [7] is given as 0.13 nM.
With `Cn1nnc2c(C(N)=O)ncn2c1=O` [Temozolomide] the inhibition at 5 µM [8] was 96 ± 1.3% and the inhibition at 5 µM [9] was 55 ± 3.2%.
With `Nc1nc(N)c2nc(-c3ccccc3)c(N)nc2n1` [Triamterene] the CC50 [1] was over 10000 nM, the “EC50 RSV A2-L19F-renilla” value [2] was “inactive^e” and the “EC50 RSV A2-L19FD489E-fireSMASh” value [3, 12] was “inactive^e”. The “EC50 IAV WSN-nanoLuc” value [4, 12] was “inactive^e”.
In the case of `CC(C)[C@]12O[C@H]1[C@@H]1O[C@]13[C@]1(O[C@H]1C[C@H]1C4=C(CC[C@@]13C)C(=O)OC4)[C@@H]2O` [Triptolide], the CC50 [1] is reported as 300 nM, the EC50 [10] is reported as 150 nM and the inhibition at 5 µM [8] is reported as 1.5 ± 21%. The EC50 [2, 14] was 600 nM, the inhibition at 5 µM [9] was 103 ± 1.2% and the “SI (CC50/EC50) value at dose-response testing” value ([4]; virus not given) was “below two”. For the same compound, the EC50 [11] was 400 nM.
In the case of `Cc1nnnn1/N=C/c1ccc(O)c(C(c2ccc(O)cc2)c2cc(/C=N/n3nnnc3C)ccc2O)c1` [VP-14637], the reported resistance sites [6] is listed as “FT400A FF488Y” and the EC50 [7, 13] is listed as 1.4 nM.
With `CC[C@]1(O)C[C@H]2CN(CCc3c([nH]c4ccccc34)[C@@](C(=O)OC)(c3cc4c(cc3OC)N(C=O)[C@H]3[C@@](O)(C(=O)OC)[C@H](OC(C)=O)[C@]5(CC)C=CCN6CC[C@]43[C@@H]65)C2)C1` [Vincristine] the inhibition at 5 µM [8] was 79 ± 6.9% and the inhibition at 5 µM [9] was 50 ± 2.9%.
With `CC(=O)N[C@H]1[C@H]([C@H](O)[C@H](O)CO)OC(C(=O)O)=C[C@@H]1N=C(N)N` [Zanamivir] the CC50 [1] was over 10000 nM, the EC50 [10] was 20 nM and the “EC50 RSV A2-L19F-renilla” value [2] was “Inactive”. The “EC50 RSV A2-L19FD489E-fireSMASh” value [3, 12] was “Inactive”, the “SI [CC50/EC50] IAV” value [4] was “SI^IAV >500” and the “selectivity for IAV reporter” value ([4]; dose-response counterscreen) was “selectively inhibited the IAV reporter”.
With ET-18-OCH3 the “EC50 RSV A2-L19F-renilla” value [2] was “inactive^e”, the “EC50 RSV A2-L19FD489E-fireSMASh” value [3, 12] was “inactive^e” and the CC50 ([5]; read-out: CC50 (PrestoBlue cell viability)) was over 10000 nM. For the same compound, the “EC50 IAV WSN-nanoLuc” value [4, 12] was “inactive^e”.
For Stattic, the EC50 [2] was 15100 nM, the EC50 ([3]; read-out: EC50 RSV A2-L19FD489E-fireSMASh, BEAS-2B, 95% confidence interval in parentheses, inactive = less than 50% reduction of mean reporter signal) was 5900 nM and the “SI [CC50/EC50] IAV” value [4] was “SIIAV 3”. The EC50 ([4]; read-out: EC50 IAV WSN-nanoLuc, BEAS-2B, 95% confidence interval in parentheses, inactive = less than 50% reduction of mean reporter signal) was 3300 nM.
